Assay results as given in US8299103B2, “Compounds which selectively modulate the CB2 receptor” (Boehringer Ingelheim International GmbH, priority 2009, dated 2012).
Read-outs that look alike come from different tables or passages of the source. One block for each compound: values may come before it.

Experiments:
human CB2R = molecular target: T1, human CB2R (Homo sapiens, UniProt P34972); assay: CB2R mediated modulation of cAMP synthesis; type: cell-based
T1 construct: host or cells: CHO cells
Protocol: B. CB2R Mediated Modulation of cAMP Synthesis:
Compounds of the invention are evaluated for their CB2 agonist or inverse agonistic activity in accordance with the following experimental method.
(§1) CHO cells expressing human CB2R (Euroscreen) are plated at a density of 5000 cells per well in 384 well plates and incubated overnight at 37° C. After removing the media, the cells are treated with test compounds diluted in stimulation buffer containing 1 mM IBMX, 0.25% BSA and 10 uM Forskolin. The assay is incubated for 30 minutes at 37° C. Cells are lysed and the cAMP concentration is measured using DiscoverX-XS cAMP kit, following the manufacturer's protocol. In this setting, agonists will decrease forskolin induced production of cAMP while inverse agonists will further increase forskolin induced production of cAMP. EC50 of agonists are calculated as follows. The maximal amount of cAMP produced by forskolin compared to the level of cAMP inhibited by 1 uM CP55940 is defined as 100%. The EC50 value of each test compound is determined as the concentration at which 50% of the forskolin-stimulated cAMP synthesis is inhibited. Data is analyzed using a four-parameter logistic model. (Model 205 of XLfit 4.0).

human CB1R = molecular target: T2, human CB1R (Homo sapiens, UniProt P21554); assay: CB1R mediated modulation of cAMP synthesis; type: cell-based
T2 construct: host or cells: CHO cells
Protocol: C. CB1R Mediated Modulation of cAMP Synthesis:
Compounds of the invention are evaluated for their CB1 agonist or inverse agonistic activity in accordance with the following experimental method.
as §1, with “CB1R” for “CB2R”

[1] = CHO cells expressing human CB2R, inhibition of forskolin-stimulated cAMP synthesis, read-out: CB2 EC50
[2] = CHO cells expressing human CB1R, inhibition of forskolin-stimulated cAMP synthesis, read-out: CB1 EC50

T2 sequence (P21554 whole entry): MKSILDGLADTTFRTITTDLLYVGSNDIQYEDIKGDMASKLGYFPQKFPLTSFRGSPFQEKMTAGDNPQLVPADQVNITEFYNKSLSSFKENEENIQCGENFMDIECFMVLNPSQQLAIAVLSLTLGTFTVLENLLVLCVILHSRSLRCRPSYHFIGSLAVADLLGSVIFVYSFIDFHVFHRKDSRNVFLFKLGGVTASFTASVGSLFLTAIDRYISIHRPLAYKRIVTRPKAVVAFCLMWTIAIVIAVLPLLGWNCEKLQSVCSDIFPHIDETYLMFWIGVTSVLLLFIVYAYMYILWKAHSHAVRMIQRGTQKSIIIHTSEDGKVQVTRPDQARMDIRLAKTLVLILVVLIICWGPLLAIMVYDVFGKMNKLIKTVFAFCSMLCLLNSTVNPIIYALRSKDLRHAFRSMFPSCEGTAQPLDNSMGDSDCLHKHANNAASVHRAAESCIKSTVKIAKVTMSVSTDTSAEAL
T1 sequence (P34972 whole entry): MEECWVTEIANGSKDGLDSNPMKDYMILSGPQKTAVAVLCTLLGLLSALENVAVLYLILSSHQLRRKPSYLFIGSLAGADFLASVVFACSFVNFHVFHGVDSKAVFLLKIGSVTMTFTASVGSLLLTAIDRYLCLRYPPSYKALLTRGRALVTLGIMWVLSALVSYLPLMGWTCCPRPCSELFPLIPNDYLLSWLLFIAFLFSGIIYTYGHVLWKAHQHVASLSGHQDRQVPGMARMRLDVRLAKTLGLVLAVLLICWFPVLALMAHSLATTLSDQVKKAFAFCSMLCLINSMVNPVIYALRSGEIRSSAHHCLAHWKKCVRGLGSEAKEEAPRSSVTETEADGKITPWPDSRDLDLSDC

SMILES: COCC(C)(C)c1cc(NC(=O)C(C)(C)NC2CCOCC2)on1
EC50 (human CB2R; [1]): 313 nM | EC50 (human CB1R; [2]): > 20000 nM

SMILES: CN(C1CCOCC1)C(C)(C)C(=O)Nc1cc(C(C)(C)CO)no1
EC50 (human CB2R): 56 nM | EC50 (human CB1R): > 50000 nM

SMILES: CC(C)(CO)c1cc(NC(=O)C(C)(C)N2CCCCC2)on1
EC50 (human CB2R): 28 nM | EC50 (human CB1R): 22000 nM

SMILES: CC(C)N(C)C(C)(C)C(=O)Nc1cc(C(C)(C)CO)no1
EC50 (human CB2R; [1]): 244 nM | EC50 (human CB1R; [2]): > 50000 nM

SMILES: CC(C)(NC1CCN(S(C)(=O)=O)CC1)C(=O)Nc1cc(C(C)(C)CO)no1
EC50 (human CB2R; [1]): 302 nM | EC50 (human CB1R; [2]): > 50000 nM

SMILES: COCC(C)(C)c1cc(NC(=O)C(C)(C)NCC2CCOCC2)no1
EC50 (human CB2R; [1]): 132 nM | EC50 (human CB1R; [2]): > 20000 nM

SMILES: COCC(C)(C)c1cc(NC(=O)C(C)(C)NC2CCOCC2)no1
EC50 (human CB2R; [1]): 337 nM | EC50 (human CB1R; [2]): > 20000 nM

SMILES: COCCOCC(C)(C)c1cc(NC(=O)C(C)(C)N(C)C2CCOCC2)on1
EC50 (human CB2R; [1]): 246 nM | EC50 (human CB1R; [2]): > 50000 nM

SMILES: C[C@H](O)C(C)(C)c1cc(NC(=O)C(C)(C)N(C)C2CCOCC2)on1
EC50 (human CB2R): 28 nM | EC50 (human CB1R): 44700 nM

SMILES: CN(C1CCOCC1)C(C)(C)C(=O)Nc1cc(C2(CO)CCCC2)no1
EC50 (human CB2R): 21 nM | EC50 (human CB1R): 21500 nM

SMILES: CN(C1CCOCC1)C(C)(C)C(=O)Nc1cc(C2(CO)CCC2)no1
EC50 (human CB2R): 66 nM | EC50 (human CB1R): > 50000 nM

SMILES: COCCOC(C)(C)c1cc(NC(=O)C(C)(C)N(C)C2CCOCC2)on1
EC50 (human CB2R): 93 nM | EC50 (human CB1R): > 50000 nM

SMILES: CN(CC1CCOCC1)C(C)(C)C(=O)Nc1cc(C2(O)CC2)no1
EC50 (human CB2R): 13 nM | EC50 (human CB1R): > 50000 nM

EC50 (human CB2R; [1]): 11 nM | EC50 (human CB1R; [2]): > 50000 nM
SMILES: CN(CC1CCOCC1)C(C)(C)C(=O)Nc1nnc(C(C)(C)CO)s1

SMILES: Cc1ncc(C(C)(C)c2cc(NC(=O)C(C)(C)N(C)C3CCOCC3)on2)o1
EC50 (human CB2R): 15 nM | EC50 (human CB1R): 20800 nM

SMILES: CN(C1CCOCC1)C(C)(C)C(=O)Nc1cc(C(C)(C)C2CCOCC2)no1
EC50 (human CB2R): 44 nM | EC50 (human CB1R): > 50000 nM

SMILES: CC(C)(NCCCC(F)(F)F)C(=O)Nc1cc(C(C)(C)OCCO)no1
EC50 (human CB2R; [1]): 109 nM | EC50 (human CB1R; [2]): > 50000 nM

SMILES: CC(C)(NCCCC(F)(F)F)C(=O)Nc1cc(C2(CO)CCC2)no1
EC50 (human CB2R): 54 nM | EC50 (human CB1R): > 50000 nM

SMILES: CC(C)(NCC1CCOCC1)C(=O)Nc1cc(C(C)(C)COC2CCCCO2)no1 (centres unmarked)
EC50 (human CB2R; [1]): 201 nM | EC50 (human CB1R; [2]): > 50000 nM

SMILES: CC(C)(NCC1CCOCC1)C(=O)Nc1cc(C(C)(C)CO)no1
EC50 (human CB2R; [1]): 374 nM | EC50 (human CB1R; [2]): > 50000 nM

SMILES: CC(C)(NCCCC(F)(F)F)C(=O)Nc1cc(C(C)(C)CO)no1
EC50 (human CB2R): 31 nM | EC50 (human CB1R): > 50000 nM

SMILES: CN(C(=O)CC1CCOCC1)C(C)(C)C(=O)Nc1cc(C(C)(C)CO)no1
EC50 (human CB2R): 27 nM | EC50 (human CB1R): > 50000 nM

SMILES: CC(C)(NCCC1CCOCC1)C(=O)Nc1cc(C(C)(C)CO)no1
EC50 (human CB2R; [1]): 113 nM | EC50 (human CB1R; [2]): > 50000 nM

SMILES: CC(C)(CO)c1cc(NC(=O)C(C)(C)N2CC[C@@H](O)C2)on1
EC50 (human CB2R; [1]): 494 nM | EC50 (human CB1R; [2]): > 50000 nM

SMILES: CC[C@H](C)N(C)C(C)(C)C(=O)Nc1cc(C(C)(C)CO)no1
EC50 (human CB2R; [1]): 220 nM | EC50 (human CB1R; [2]): > 50000 nM

SMILES: CN(CC1CC1)C(C)(C)C(=O)Nc1cc(C(C)(C)CO)no1
EC50 (human CB2R): 12 nM | EC50 (human CB1R): 36000 nM

SMILES: CC(C)(N[C@H]1CC[C@@H](O)CC1)C(=O)Nc1cc(C(C)(C)CO)no1
EC50 (human CB2R; [1]): 300 nM | EC50 (human CB1R; [2]): > 50000 nM

SMILES: CC(C)(N[C@H]1CC[C@@H](NS(C)(=O)=O)CC1)C(=O)Nc1cc(C(C)(C)CO)no1
EC50 (human CB2R): 42 nM | EC50 (human CB1R): > 50000 nM

SMILES: CC(C)(CO)c1cc(NC(=O)C(C)(C)N2CCC(NS(C)(=O)=O)CC2)on1
EC50 (human CB2R): 7.1 nM | EC50 (human CB1R): > 50000 nM

SMILES: CN(C[C@H]1CCCN(S(C)(=O)=O)C1)C(C)(C)C(=O)Nc1cc(C(C)(C)CO)no1
EC50 (human CB2R; [1]): 126 nM | EC50 (human CB1R; [2]): > 50000 nM

SMILES: CN(CC1CCOC1)C(C)(C)C(=O)Nc1cc(C(C)(C)CO)no1 (centres unmarked)
EC50 (human CB2R): 29 nM | EC50 (human CB1R): > 50000 nM

SMILES: CN(C(=O)C[C@H]1CCOC1)C(C)(C)C(=O)Nc1cc(C(C)(C)CO)no1
EC50 (human CB2R): 25 nM | EC50 (human CB1R): > 50000 nM

SMILES: CN(C1CC1)C(C)(C)C(=O)Nc1cc(C(C)(C)CO)no1
EC50 (human CB2R): 446 nM

SMILES: CN(C1CCOCC1)C(C)(C)C(=O)Nc1cc(C(C)(C)COCCO)no1
EC50 (human CB2R): 15 nM | EC50 (human CB1R): 37600 nM

SMILES: Cc1ncc(C(C)(C)c2cc(NC(=O)C(C)(C)NC3CCN(S(C)(=O)=O)CC3)on2)s1
EC50 (human CB2R; [1]): 195 nM | EC50 (human CB1R; [2]): > 50000 nM

SMILES: CN(C(=O)CCC(F)(F)F)C(C)(C)C(=O)Nc1cc(C(C)(C)CO)no1
EC50 (human CB2R): 69 nM | EC50 (human CB1R): > 50000 nM

SMILES: CN([C@@H]1CCN(S(C)(=O)=O)C1)C(C)(C)C(=O)Nc1cc(C(C)(C)CO)no1
EC50 (human CB2R): 1.7 nM | EC50 (human CB1R): > 20000 nM

SMILES: CN([C@H]1CCN(S(C)(=O)=O)C1)C(C)(C)C(=O)Nc1cc(C(C)(C)CO)no1
EC50 (human CB2R): 28 nM | EC50 (human CB1R): > 50000 nM

SMILES: CN(C[C@H]1COCCO1)C(C)(C)C(=O)Nc1cc(C(C)(C)CO)no1
EC50 (human CB2R): 68 nM | EC50 (human CB1R): > 50000 nM

SMILES: CN(C[C@@H]1COCCO1)C(C)(C)C(=O)Nc1cc(C(C)(C)CO)no1
EC50 (human CB2R): 40 nM | EC50 (human CB1R): > 50000 nM

SMILES: CN(C(=O)CCCC(F)(F)F)C(C)(C)C(=O)Nc1cc(C(C)(C)CO)no1
EC50 (human CB2R): 27 nM | EC50 (human CB1R): 32100 nM

SMILES: CC(C)(NC1CCC(NS(C)(=O)=O)CC1)C(=O)Nc1nnn(C(C)(C)C)n1 (centres unmarked)
EC50 (human CB2R; read-out: CB2 EC50, CHO cells expressing human CB2R, inhibition of forskolin-stimulated cAMP synthesis): 33 nM | EC50 (human CB1R; read-out: CB1 EC50, CHO cells expressing human CB1R, inhibition of forskolin-stimulated cAMP synthesis): > 50000 nM
